From PMC3462244 (2012) come the findings set out here.

Structures are written as SMILES.

For the assay, the target named is cannabinoid receptor subtype 2 (CB2) (Homo sapiens, UniProt P34972). The assay can be described thus: [3H]CP-55940 radioligand competition binding, CHO-CB2 cell membranes.

What is called Ki is a measure of affinity in units of concentration, obtained from inhibition or displacement.

Sequence of cannabinoid receptor subtype 2 (CB2) (P34972 whole entry): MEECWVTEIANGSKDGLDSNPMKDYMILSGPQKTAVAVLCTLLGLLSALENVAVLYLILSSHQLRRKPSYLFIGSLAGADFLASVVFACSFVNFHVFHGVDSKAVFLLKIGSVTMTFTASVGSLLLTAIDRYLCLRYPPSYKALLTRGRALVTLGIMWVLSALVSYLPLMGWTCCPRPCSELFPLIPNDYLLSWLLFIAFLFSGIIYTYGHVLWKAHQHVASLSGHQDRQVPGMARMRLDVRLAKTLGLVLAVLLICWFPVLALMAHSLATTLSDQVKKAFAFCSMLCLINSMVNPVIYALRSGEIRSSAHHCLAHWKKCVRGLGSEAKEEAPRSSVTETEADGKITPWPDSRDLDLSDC

With `CC(=O)OC1CC2C3(C)CCC4C(C)(C)CCCC4(C)C3CC(O)C2(C)C2C1=COC2OC(C)=O` (stereo not shown) [compound 369049, NSC369049], the “Experimental pKi” value came out at 5.51 pKi.
`COC(=O)C1(C)CCCC2(C)c3cc(O)c(C(C)C)cc3CCC12` (stereo not shown) [compound 49888, NSC49888] gave an inhibition constant Ki of 6.7 nM.
With `COc1ccc2c(c1)CCC1=C2CC2C(=O)C1(C)CCC2(C)OC(C)=O` (stereo not shown) [compound 76301, NSC76301], the “Experimental pKi” value worked out at 5.42 pKi.
As for `COc1ccc2c(c1)c1c(C)c3cnccc3c(C)c1n2CCCN1C(=O)c2ccccc2C1=O` [compound 174122, NSC174122], the “Experimental pKi” value was 5.59 pKi.
